Experimental data published in publication PMC12255297 (Nucleic Acids Research, 2025).

Columns and labels:
[1] = target: T1, C. botulinum SAM-AMP lyase (Clostridium botulinum, UniProt A5I3U9)
T1 construct: gene CBO2178

[2] = target: T1, C. botulinum SAM-AMP lyase; remark: listed apart in the source

T1 sequence (A5I3U9 1-124 limits assumed): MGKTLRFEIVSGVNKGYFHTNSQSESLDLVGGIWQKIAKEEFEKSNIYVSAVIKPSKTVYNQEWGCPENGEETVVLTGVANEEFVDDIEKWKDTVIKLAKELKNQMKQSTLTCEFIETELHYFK

Row | SMILES | HPLC and LC-MS of cleavage to MTA-AMP and homoserine lactone [1] | electrophoretic mobility shift assay, native gel [2]
1 | C[S+](CC[C@H](N)C(=O)O)C[C@H]1O[C@@H](n2cnc3c(N)ncnc32)[C@H](O)[C@@H]1OP(=O)(O)OC[C@H]1O[C@@H](n2cnc3c(N)ncnc32)[C@H](O)[C@@H]1O (some centres unmarked) [SAM-AMP] | HPLC analysis and mass spectrometry confirmed that SAM-AMP was degraded, generating the previously observed MTA-AMP product | 
2 | CSC[C@H]1O[C@@H](n2cnc3c(N)ncnc32)[C@H](O)[C@@H]1OP(=O)(O)OC[C@H]1O[C@@H](n2cnc3c(N)ncnc32)[C@H](O)[C@@H]1O [MTA-AMP] |  | SAM-AMP lyase binds its product MTA-AMP, but not SAH-AMP or SFG-AMP
